Experimental data published in PubChem BioAssay AID256 (DTP/NCI, 2004).
“And” between values parts separate entries of the source, which are not always exact repeats. Equal entries are not always repeated. Inconclusive results and toxic doses are left out. Rule for the calls: active = survival T/C of 150% or more; inactive = T/C below 125% in these data.

System: CD2F1 mice, L1210 leukemia ip, survival T/C
Assay: NCI In Vivo Anticancer Drug Screen. Data for tumor model L1210 Leukemia (intraperitoneal) in CD2F1 (CDF1) mice
Details: higher = longer survival
Summary of the method: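 Transplantable tumor in mice; compound-treated vs vehicle-treated groups. Read-out = treated/control ratio of the measured endpoint.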

[1] = endpoint: mean survival time, dose: 50.0 mg/kg/injection, schedule: Q04DX002 (ip), vehicle: saline with Tween-80
[2] = endpoint: mean survival time, dose: 100.0 mg/kg/injection, schedule: Q01DX001 (ip), vehicle: saline with Tween-80
[3] = endpoint: mean survival time, dose: 200.0 mg/kg/injection, schedule: Q01DX001 (ip), vehicle: saline with Tween-80
[4] = endpoint: mean survival time, dose: 400.0 mg/kg/injection, schedule: Q01DX001 (ip), vehicle: saline with Tween-80
[5] = endpoint: mean survival time, dose: 50.0 mg/kg/injection, schedule: Q01DX001 (ip), vehicle: carboxymethylcellulose (CMC)
[6] = endpoint: mean survival time, dose: 100.0 mg/kg/injection, schedule: Q01DX001 (ip), vehicle: carboxymethylcellulose (CMC)

Measured: T/C

O=N[O-].O=N[O-].[Co].[NH-]CC[NH-].[NH-]CC[NH-]
inactive: [1] 93 % of control | endpoint: mean survival time, dose: 75.0 mg/kg/injection, schedule: Q01DX001 (ip), vehicle: saline 103 % of control | endpoint: mean survival time, dose: 100.0 mg/kg/injection, schedule: Q04DX002 (ip), vehicle: saline with Tween-80 100 % of control | endpoint: mean survival time, dose: 150.0 mg/kg/injection, schedule: Q01DX001 (ip), vehicle: saline 113 % of control | endpoint: mean survival time, dose: 200.0 mg/kg/injection, schedule: Q04DX002 (ip), vehicle: saline with Tween-80 96 % of control

Cc1cc(=O)oc2cc(O)ccc12
inactive: [2] 94 % of control | [3] 98 % of control | [4] 87 % of control

Cc1cc(C)[nH]c(=S)n1.[Pt]
inactive: endpoint: mean survival time, dose: 3.12 mg/kg/injection, schedule: Q04DX003 (ip), vehicle: saline with Tween-80 104 % of control | endpoint: mean survival time, dose: 3.12 mg/kg/injection, schedule: Q04DX003 (ip), vehicle: saline 120 % of control and 108 % of control | endpoint: mean survival time, dose: 6.25 mg/kg/injection, schedule: Q04DX003 (ip), vehicle: saline with Tween-80 102 % of control | endpoint: mean survival time, dose: 6.25 mg/kg/injection, schedule: Q04DX003 (ip), vehicle: saline 117 % of control and 96 % of control | endpoint: mean survival time, dose: 12.5 mg/kg/injection, schedule: Q04DX003 (ip), vehicle: saline with Tween-80 101 % of control | endpoint: mean survival time, dose: 12.5 mg/kg/injection, schedule: Q04DX003 (ip), vehicle: saline 96 % of control | endpoint: mean survival time, dose: 25.0 mg/kg/injection, schedule: Q04DX003 (ip), vehicle: saline with Tween-80 98 % of control | endpoint: mean survival time, dose: 25.0 mg/kg/injection, schedule: Q04DX003 (ip), vehicle: saline 102 % of control | endpoint: mean survival time, dose: 50.0 mg/kg/injection, schedule: Q04DX003 (ip), vehicle: saline with Tween-80 101 % of control | endpoint: mean survival time, dose: 50.0 mg/kg/injection, schedule: Q04DX003 (ip), vehicle: saline 96 % of control and 97 % of control | endpoint: mean survival time, dose: 100.0 mg/kg/injection, schedule: Q04DX003 (ip), vehicle: saline with Tween-80 101 % of control | endpoint: mean survival time, dose: 100.0 mg/kg/injection, schedule: Q04DX003 (ip), vehicle: saline 120 % of control and 96 % of control | endpoint: mean survival time, dose: 200.0 mg/kg/injection, schedule: Q04DX003 (ip), vehicle: saline with Tween-80 107 % of control | endpoint: mean survival time, dose: 200.0 mg/kg/injection, schedule: Q04DX003 (ip), vehicle: saline 106 % of control

CCCc1nc(N)[nH]c(=O)c1CCCCCCCCCCCc1ccccc1
inactive: endpoint: mean survival time, dose: 75.0 mg/kg/injection, schedule: Q01DX001 (ip), vehicle: saline with Tween-80 98 % of control | endpoint: mean survival time, dose: 150.0 mg/kg/injection, schedule: Q01DX001 (ip), vehicle: saline with Tween-80 97 % of control | endpoint: mean survival time, dose: 300.0 mg/kg/injection, schedule: Q01DX001 (ip), vehicle: saline with Tween-80 95 % of control

O=[N+]([O-])c1ccc(S/C=C/c2ccccc2)cc1
inactive: endpoint: median survival time, dose: 25.0 mg/kg/injection, schedule: Q04DX002 (ip), vehicle: saline with Tween-80 100 % of control | endpoint: median survival time, dose: 50.0 mg/kg/injection, schedule: Q04DX002 (ip), vehicle: saline with Tween-80 110 % of control | endpoint: median survival time, dose: 100.0 mg/kg/injection, schedule: Q04DX002 (ip), vehicle: saline with Tween-80 100 % of control | endpoint: median survival time, dose: 200.0 mg/kg/injection, schedule: Q04DX002 (ip), vehicle: saline with Tween-80 100 % of control

CC(=O)OC(c1ccccc1)C(C)C(O)(C(F)(F)F)C(F)(F)F (stereo unspecified)
inactive: [2] 98 % of control | [3] 87 % of control | [4] 95 % of control

NC(CC(=O)c1cccc2oc3cc(=O)c4[nH]c(C(=O)O)cc(=O)c4c-3nc12)C(=O)O (stereo unspecified)
inactive: [5] 98 % of control | [6] 95 % of control | endpoint: mean survival time, dose: 200.0 mg/kg/injection, schedule: Q01DX001 (ip), vehicle: carboxymethylcellulose (CMC) 95 % of control | endpoint: mean survival time, dose: 400.0 mg/kg/injection, schedule: Q01DX001 (ip), vehicle: carboxymethylcellulose (CMC) 101 % of control

O=C(Nc1ccc(Cl)cc1Cl)SCCO
inactive: endpoint: mean survival time, dose: 100.0 mg/kg/injection, schedule: Q01DX009 (ip), vehicle: saline with Tween-80 108 % of control | endpoint: mean survival time, dose: 200.0 mg/kg/injection, schedule: Q01DX009 (ip), vehicle: saline with Tween-80 101 % of control | endpoint: mean survival time, dose: 400.0 mg/kg/injection, schedule: Q01DX009 (ip), vehicle: saline with Tween-80 95 % of control

CC(=O)OCC1OC(n2ccc3c(N)ncnc32)C(O)C1OC(C)=O (stereo unspecified)
inactive: endpoint: mean survival time, dose: 5.0 mg/kg/injection, schedule: Q01DX001 (ip), vehicle: saline 112 % of control | endpoint: mean survival time, dose: 10.0 mg/kg/injection, schedule: Q01DX001 (ip), vehicle: saline 110 % of control | endpoint: mean survival time, dose: 20.0 mg/kg/injection, schedule: Q01DX001 (ip), vehicle: saline 108 % of control

O=C1CC(c2ccccc2)CO1 (stereo unspecified)
inactive: endpoint: mean survival time, dose: 100.0 mg/kg/injection, schedule: Q01DX001 (ip), vehicle: saline 106 % of control | endpoint: mean survival time, dose: 200.0 mg/kg/injection, schedule: Q01DX001 (ip), vehicle: saline 100 % of control

CC12CCC3C4CCC(=O)C(CCC(=O)O)=C4CCC3(CO1)C2 (stereo unspecified)
inactive: [2] 102 % of control | [3] 95 % of control | [4] 94 % of control

O=C1CCCCCCC(=O)CCCCCC1
inactive: endpoint: mean survival time, dose: 12.5 mg/kg/injection, schedule: Q04DX002 (ip), vehicle: saline with Tween-80 105 % of control | endpoint: mean survival time, dose: 25.0 mg/kg/injection, schedule: Q04DX002 (ip), vehicle: saline with Tween-80 101 % of control | [1] 105 % of control

CN(C)C1c2ccccc2-c2ccc(F)cc21 (stereo unspecified)
inactive: [5] 107 % of control | [6] 113 % of control

O=[N+]([O-])c1ccc(O)c(N=Cc2ccccc2O)c1
inactive: endpoint: mean survival time, dose: 100.0 mg/kg/injection, schedule: Q04DX002 (ip), vehicle: Klucel (hydroxypropylcellulose) (HPC) 105 % of control | endpoint: mean survival time, dose: 200.0 mg/kg/injection, schedule: Q04DX002 (ip), vehicle: Klucel (hydroxypropylcellulose) (HPC) 97 % of control | endpoint: mean survival time, dose: 400.0 mg/kg/injection, schedule: Q04DX002 (ip), vehicle: Klucel (hydroxypropylcellulose) (HPC) 97 % of control

Cn1cc[n+](C)c1C(c1ccccc1)N1CCCCC1 (stereo unspecified)
inactive: endpoint: mean survival time, dose: 5.0 mg/kg/injection, schedule: Q01DX001 (ip), vehicle: saline with Tween-80 106 % of control | endpoint: mean survival time, dose: 5.0 mg/kg/injection, schedule: Q01DX009 (ip), vehicle: saline with Tween-80 94 % of control | endpoint: mean survival time, dose: 10.0 mg/kg/injection, schedule: Q01DX001 (ip), vehicle: saline with Tween-80 96 % of control | endpoint: mean survival time, dose: 10.0 mg/kg/injection, schedule: Q01DX009 (ip), vehicle: saline with Tween-80 100 % of control | endpoint: mean survival time, dose: 20.0 mg/kg/injection, schedule: Q01DX001 (ip), vehicle: saline with Tween-80 102 % of control | endpoint: mean survival time, dose: 20.0 mg/kg/injection, schedule: Q01DX009 (ip), vehicle: saline with Tween-80 98 % of control

O=C(Nc1ccccc1CCl)Nc1ccccc1CCl
inactive: endpoint: median survival time, dose: 50.0 mg/kg/injection, schedule: Q01DX005 (ip), vehicle: saline with Tween-80 111 % of control | endpoint: median survival time, dose: 100.0 mg/kg/injection, schedule: Q01DX005 (ip), vehicle: saline with Tween-80 117 % of control | endpoint: median survival time, dose: 200.0 mg/kg/injection, schedule: Q01DX005 (ip), vehicle: saline with Tween-80 115 % of control | endpoint: median survival time, dose: 400.0 mg/kg/injection, schedule: Q01DX005 (ip), vehicle: saline with Tween-80 121 % of control

C/C=C(/C)C(=O)O[C@H]1CC[C@@]2(C)[C@@H]3CC[C@H]4[C@]5(O)C[C@H](O)[C@@]6(O)[C@@H](CN7C[C@@H](C)CC[C@H]7[C@@]6(C)O)[C@]5(O)C[C@@]42O[C@@]13O
inactive: endpoint: mean survival time, dose: 0.5 mg/kg/injection, schedule: Q01DX009 (ip), vehicle: saline with Tween-80 101 % of control | endpoint: mean survival time, dose: 1.0 mg/kg/injection, schedule: Q01DX009 (ip), vehicle: saline with Tween-80 101 % of control | endpoint: mean survival time, dose: 2.0 mg/kg/injection, schedule: Q01DX009 (ip), vehicle: saline with Tween-80 101 % of control

Clc1cc(CBr)c(CBr)cc1Cl
inactive: endpoint: mean survival time, dose: 12.5 mg/kg/injection, schedule: Q01DX009 (ip), vehicle: saline with Tween-80 107 % of control | endpoint: mean survival time, dose: 25.0 mg/kg/injection, schedule: Q01DX009 (ip), vehicle: saline with Tween-80 97 % of control | endpoint: mean survival time, dose: 50.0 mg/kg/injection, schedule: Q01DX009 (ip), vehicle: saline with Tween-80 100 % of control
